Data taken from ChEMBL document CHEMBL3046322, “Insect growth regulatory effects by diterpenes from Calceolaria talcana Grau & Ehrhart (Calceolariaceae: Scrophulariaceae) against Spodoptera frugiperda and Drosophila melanogaster” (2013).
Active and inactive are the calls of the source. The calls are words filed in the database; no cut-off is given here.

Experiments:
Drosophila melanogaster [1] = test: Insecticidal activity against Drosophila melanogaster larvae fed with compound incorporated diet assessed as mortality at 5 to 100 ug/ml after 72 hr by not choice test (reference value: 0%); format: functional, organism-based
Spodoptera frugiperda [2] = test: Growth inhibitory activity against Spodoptera frugiperda (fall armyworm) larvae fed with compound containing diet assessed as growth index at 25 ug/ml (reference value: 0.95 +/-0.02 no_unit); format: functional
Spodoptera frugiperda [3] = test: Growth inhibitory activity against Spodoptera frugiperda (fall armyworm) larvae fed with compound containing diet assessed as relative growth index at 35 ug/ml (reference value: 1.0 no_unit); format: functional
Spodoptera frugiperda [4] = test: Growth inhibitory activity against po dosed fourth-instar larvae of Spodoptera frugiperda (fall armyworm) assessed as proportion of prothetely appearance of precocious pupal structure in larvae after 48 to 72 hr; format: functional; parameters: scale not given: the % may be the effect or the level left
Drosophila melanogaster [5] = test: Insecticidal activity against Drosophila melanogaster larvae fed with compound incorporated diet assessed as mortality at 20 ug/ml after 72 hr by not choice test (reference value: 0%); format: functional
Spodoptera frugiperda [6] = test: Growth inhibitory activity against Spodoptera frugiperda (fall armyworm) larvae fed with compound containing diet assessed as relative growth index at 50 ug/ml (reference value: 1.0 no_unit); format: functional
Spodoptera frugiperda [7] = test: Growth inhibitory activity against Spodoptera frugiperda (fall armyworm) larvae fed with compound containing diet assessed as relative growth index at 10 ug/ml (reference value: 1.0 no_unit); format: functional
Drosophila melanogaster [8] = test: Insecticidal activity against Drosophila melanogaster larvae fed with compound incorporated diet assessed as mortality at 50 ug/ml after 72 hr by not choice test (reference value: 0%); format: functional
Drosophila melanogaster [9] = test: Insecticidal activity against Drosophila melanogaster larvae fed with compound incorporated diet assessed as mortality at 100 ug/ml after 72 hr by not choice test (reference value: 0%); format: functional
Spodoptera frugiperda [10] = test: Growth inhibitory activity against Spodoptera frugiperda (fall armyworm) larvae fed with compound containing diet assessed as growth index at 35 ug/ml (reference value: 0.95 +/-0.02 no_unit); format: functional
Spodoptera frugiperda [11] = test: Growth inhibitory activity against Spodoptera frugiperda (fall armyworm) larvae fed with compound containing diet assessed as relative growth index at 25 ug/ml (reference value: 1.0 no_unit); format: functional
Spodoptera frugiperda [12] = test: Growth inhibitory activity against Spodoptera frugiperda (fall armyworm) larvae fed with compound containing diet assessed as growth index at 10 ug/ml (reference value: 0.95 +/-0.02 no_unit); format: functional
Spodoptera frugiperda [13] = test: Growth inhibitory activity against Spodoptera frugiperda (fall armyworm) larvae fed with compound containing diet assessed as growth index at 50 ug/ml (reference value: 0.95 +/-0.02 no_unit); format: functional
Spodoptera frugiperda [14] = test: Growth inhibitory activity against po dosed Spodoptera frugiperda (fall armyworm) larvae assessed as promotion of apolysis to fifth instar with ecdysis inhibition at 5 to 20 ug/ml; format: functional, organism-based
Spodoptera frugiperda [15] = test: Insecticidal activity against first-instar larval stage of Spodoptera frugiperda (fall armyworm) fed with compound incorporated diet assessed as mortality at 25 ug/ml after 21 days (reference value: 5.6%); format: functional; details: 504 h
Spodoptera frugiperda [16] = test: Growth inhibitory activity against first-instar larval stage of Spodoptera frugiperda (fall armyworm) fed with compound incorporated diet assessed as length gained at 50 ug/ml after 21 days (reference value: 100%); format: functional
Spodoptera frugiperda [17] = test: Growth inhibitory activity against first-instar larval stage of Spodoptera frugiperda (fall armyworm) fed with compound incorporated diet assessed as weight gained at 25 ug/ml after 21 days (reference value: 100%); format: functional; parameters: scale not given: the % may be the effect or the level left
Spodoptera frugiperda [18] = test: Growth inhibitory activity against first-instar larval stage of Spodoptera frugiperda (fall armyworm) fed with compound incorporated diet assessed as length gained at 25 ug/ml after 21 days (reference value: 100%); format: functional; parameters: scale not given: the % may be the effect or the level left
Spodoptera frugiperda [19] = test: Growth inhibitory activity against first-instar larval stage of Spodoptera frugiperda (fall armyworm) fed with compound incorporated diet assessed as weight gained at 10 ug/ml after 21 days (reference value: 100%); format: functional
Spodoptera frugiperda [20] = test: Growth inhibitory activity against first-instar larval stage of Spodoptera frugiperda (fall armyworm) fed with compound incorporated diet assessed as weight gained at 10 ug/ml after 7 days (reference value: 100%); format: functional; parameters: scale not given: the % may be the effect or the level left
Spodoptera frugiperda [21] = test: Growth inhibitory activity against first-instar larval stage of Spodoptera frugiperda (fall armyworm) fed with compound incorporated diet assessed as length gained at 25 ug/ml after 7 days (reference value: 100%); format: functional; parameters: scale not given: the % may be the effect or the level left
Spodoptera frugiperda [22] = test: Growth inhibitory activity against Spodoptera frugiperda (fall armyworm) larvae fed with compound containing diet assessed as reduction in adult emergence at 20 ug/ml; format: functional
Spodoptera frugiperda [23] = test: Growth inhibitory activity against first-instar larval stage of Spodoptera frugiperda (fall armyworm) fed with compound incorporated diet assessed as length gained at 50 ug/ml after 7 days (reference value: 100%); format: functional
Spodoptera frugiperda [24] = test: Growth inhibitory activity against first-instar larval stage of Spodoptera frugiperda (fall armyworm) fed with compound incorporated diet assessed as length gained at 10 ug/ml after 7 days (reference value: 100%); format: functional
Spodoptera frugiperda [25] = test: Growth inhibitory activity against first-instar larval stage of Spodoptera frugiperda (fall armyworm) fed with compound incorporated diet assessed as length gained at 10 ug/ml after 21 days (reference value: 100%); format: functional
Spodoptera frugiperda [26] = test: Growth inhibitory activity against first-instar larval stage of Spodoptera frugiperda (fall armyworm) fed with compound incorporated diet assessed as weight gained at 25 ug/ml after 7 days (reference value: 100%); format: functional; parameters: scale not given: the % may be the effect or the level left
Spodoptera frugiperda [27] = test: Growth inhibitory activity against Spodoptera frugiperda (fall armyworm) larvae fed with compound containing diet assessed as reduction in adult emergence at 35 ug/ml; format: functional
Spodoptera frugiperda [28] = test: Insecticidal activity against first-instar larval stage of Spodoptera frugiperda (fall armyworm) fed with compound incorporated diet assessed as mortality at 50 ug/ml after 21 days (reference value: 5.6%); format: functional; details: 504 h
Spodoptera frugiperda [29] = test: Acute toxicity against last larval stage of Spodoptera frugiperda (fall armyworm) assessed as survival at 25 ug/ml applied topically onto abdomen measured after 24 hr (reference value: 98.8 +/-3.5%); format: functional
Spodoptera frugiperda [30] = test: Growth inhibitory activity against first-instar larval stage of Spodoptera frugiperda (fall armyworm) fed with compound incorporated diet assessed as weight gained at 50 ug/ml after 7 days (reference value: 100%); format: functional; parameters: scale not given: the % may be the effect or the level left
Spodoptera frugiperda [31] = test: Acute toxicity against last larval stage of Spodoptera frugiperda (fall armyworm) assessed as survival at 10 ug/ml applied topically onto abdomen measured after 24 hr (reference value: 98.8 +/-3.5%); format: functional
Spodoptera frugiperda [32] = test: Growth inhibitory activity against first-instar larval stage of Spodoptera frugiperda (fall armyworm) fed with compound incorporated diet assessed as weight gained at 50 ug/ml after 21 days (reference value: 100%); format: functional
Spodoptera frugiperda [33] = test: Insecticidal activity against first-instar larval stage of Spodoptera frugiperda (fall armyworm) fed with compound incorporated diet assessed as mortality at 25 ug/ml after 7 days (reference value: 5.6%); format: functional; details: 168 h
Spodoptera frugiperda [34] = test: Growth inhibitory activity against Spodoptera frugiperda (fall armyworm) larvae fed with compound containing diet assessed as delay in time to pupation; format: functional, organism-based
Spodoptera frugiperda [35] = test: Insecticidal activity against first-instar larval stage of Spodoptera frugiperda (fall armyworm) fed with compound incorporated diet assessed as mortality at 50 ug/ml after 7 days (reference value: 5.6%); format: functional; details: 168 h
Spodoptera frugiperda [36] = test: Insecticidal activity against first-instar larval stage of Spodoptera frugiperda (fall armyworm) fed with compound incorporated diet assessed as mortality at 10 ug/ml after 21 days (reference value: 5.6%); format: functional; details: 504 h
Spodoptera frugiperda [37] = test: Insecticidal activity against first-instar larval stage of Spodoptera frugiperda (fall armyworm) fed with compound incorporated diet assessed as mortality at 10 ug/ml after 7 days (reference value: 5.6%); format: functional; details: 168 h
Spodoptera frugiperda [38] = test: Growth inhibitory activity against Spodoptera frugiperda (fall armyworm) larvae fed with compound containing diet assessed as delay in adult emergence; format: functional, organism-based

Structure (SMILES): C=C(C)[C@@H]1CC[C@]2(C)CC[C@]3(C)[C@H](CC[C@@H]4[C@@]5(C)CC[C@H](O)C(C)(C)[C@@H]5CC[C@]43C)[C@@H]12
- mortality (Drosophila melanogaster [1]): inactive

Structure (SMILES): CC1OC2=C(C(=O)c3ccccc3C2=O)C1(C)C (stereo unspecified)
- mortality (Drosophila melanogaster [1]): inactive

Structure (SMILES): CC[C@H](CC[C@@H](C)[C@H]1CC[C@H]2[C@@H]3CC=C4C[C@@H](O)CC[C@]4(C)[C@H]3CC[C@]12C)C(C)C
- mortality (Drosophila melanogaster [1]): inactive

Structure (SMILES): C[C@@H]1O[C@@H](O[C@@H]2[C@@H](O)[C@H](OCCc3ccc(O)c(O)c3)O[C@H](CO)[C@H]2OC(=O)/C=C/c2ccc(O)c(O)c2)[C@H](O)[C@H](O)[C@H]1O [ACETOSIDE]
- Growth_index (Spodoptera frugiperda [2]): 0.41
- Growth_index (Spodoptera frugiperda [3]): 0.15
- Activity (Spodoptera frugiperda [4]): 30%
- mortality at 20 µg/mL (Drosophila melanogaster [5]): 92%
- Growth_index (Spodoptera frugiperda [6]): 0.1
- Growth_index (Spodoptera frugiperda [7]): 0.67
- mortality at 50 µg/mL (Drosophila melanogaster [8]): 100%
- mortality at 100 µg/mL (Drosophila melanogaster [9]): 100%
- Growth_index (Spodoptera frugiperda [10]): 0.09
- Growth_index (Spodoptera frugiperda [11]): 0.45
- Growth_index (Spodoptera frugiperda [12]): 0.66
- Growth_index (Spodoptera frugiperda [13]): 0.07
- Activity (Spodoptera frugiperda [14]): Active

Structure (SMILES): CC(=O)O[C@@H]1C[C@H]2C(C)(C)C(=O)C=C[C@]2(C)[C@H]2CC[C@@]3(C)[C@H](c4ccoc4)OC(=O)[C@H]4O[C@]43[C@@]21C [GEDUNIN]
- Growth_index (Spodoptera frugiperda [2]): 0.51
- mortality at 25 µg/mL (Spodoptera frugiperda [15]): 100%
- Length gained (% of control) (Spodoptera frugiperda [16]): 11.6%
- Activity (Spodoptera frugiperda [17]): 0%
- Activity (Spodoptera frugiperda [18]): 0%
- Weight gain (% of control) (Spodoptera frugiperda [19]): 0%
- Activity (Spodoptera frugiperda [20]): 7.1%
- Activity (Spodoptera frugiperda [21]): 20%
- inhibition at 20 µg/mL (Spodoptera frugiperda [22]): 0%
- Activity (Spodoptera frugiperda [4]): 30%
- Length gain relative to control (Spodoptera frugiperda [23]): 16.7%
- Larval length gained (% of control) (Spodoptera frugiperda [24]): 32.5%
- Length gained relative to control (Spodoptera frugiperda [25]): 0%
- Activity (Spodoptera frugiperda [26]): 3.3%
- mortality at 20 µg/mL (Drosophila melanogaster [5]): 87.1%
- inhibition at 35 µg/mL (Spodoptera frugiperda [27]): 0%
- mortality at 50 µg/mL (Spodoptera frugiperda [28]): 98.7%
- Activity (Spodoptera frugiperda [29]): 14.1%
- Growth_index (Spodoptera frugiperda [6]): 0.11
- Growth_index (Spodoptera frugiperda [7]): 0.71
- mortality at 50 µg/mL (Drosophila melanogaster [8]): 100%
- mortality at 100 µg/mL (Drosophila melanogaster [9]): 11%
- Activity (Spodoptera frugiperda [30]): 1.9%
- Activity (Spodoptera frugiperda [31]): 54.7%
- Weight gain relative to control (Spodoptera frugiperda [32]): 2.05%
- mortality at 25 µg/mL (Spodoptera frugiperda [33]): 38%
- inhibition (Spodoptera frugiperda [34]): Active
- mortality at 50 µg/mL (Spodoptera frugiperda [35]): 70.8%
- mortality at 10 µg/mL (Spodoptera frugiperda [36]): 100%
- Growth_index (Spodoptera frugiperda [11]): 0.55
- mortality at 10 µg/mL (Spodoptera frugiperda [37]): 33%
- inhibition (Spodoptera frugiperda [38]): Active
- Growth_index (Spodoptera frugiperda [12]): 0.77
- Growth_index (Spodoptera frugiperda [13]): 0.1
- Activity (Spodoptera frugiperda [14]): Active
